Where a name gives a salt, the structure may show the parent alone. Read-outs that look alike come from different tables or passages of the source.
Columns and labels:
DENV-3 strain H87 = assay: Tetravalent RT-qPCR assay, serotype 3; format: cell-based, Dengue virus; settings: for EC50: Dengue virus, DENV3, 72 h, RT-qPCR serotype 3 H87, Vero cells, day 3; for SI: RT-qPCR serotype 3 H87
Description: (§1) The antiviral activity of the compounds of the invention was tested against DENV-1 strain TC974#666 (NCPV), DENV-2 strain 16681, DENV-3 strain H87 (NCPV) and DENV-4 strain H241 (NCPV) in a RT-qPCR assay. Therefore, Vero cells were infected with either DENV-1, or -2, or -3, or -4 in the presence or absence of test compounds. At day 3 post-infection, the cells were lysed and cell lysates were used to prepare cDNA of both a viral target (the 3′UTR of DENV; Table 2) and a cellular reference gene (1-actin, Table 2). Subsequently, a duplex real time PCR was performed on a Lightcycler480 instrument. The generated Cp value is inversely proportional to the amount of RNA expression of these targets. Inhibition of DENV replication by a test compound results in a shift of Cp's for the 3′UTR gene. On the other hand, if a test compound is toxic to the cells, a similar effect on β-actin expression will be observed. The comparative ΔΔCp method is used to calculate EC50, which is based on the relative gene expression of the target gene (3′UTR) normalized with the cellular housekeeping gene (β-actin). In addition, CC50 values are determined based on the Cp values acquired for the housekeeping gene β-actin.
(§2) The culture medium consisted of minimal essential medium supplemented with 2% of heat-inactivated fetal calf serum, 0.04% gentamycin (50 mg/mL) and 2 mM of L-glutamine. Vero cells, obtained from ECACC, were suspended in culture medium and 75 μL/well was added in 96-well plates (10000 cells/well), which already contain the antiviral compounds. […] In addition, each plate contains wells which are assigned as virus controls (containing cells and virus in the absence of compound) and cell controls (containing cells in the absence of virus and compound). Once the cells were added in the plates, the plates were incubated in a fully humidified incubator (37° C., 5% CO2) until the next day. Dengue viruses serotype-1, 2, 3 and 4 were diluted in order to obtain a Cp of ˜22-24 in the assay. Therefore, 25 μL of virus suspension was added to all the wells containing test compound and to the wells assigned as virus control. In parallel, 25 μL of culture medium was added to the cell controls. Next, the plates were incubated for 3 days in a fully humidified incubator (37° C., 5% CO2). After 3 days, the supernatant was removed from the wells and the cells were washed twice with ice-cold PBS (˜100 μL). The cell pellets within the 96-well plates were stored at −80° C. for at least 1 day. Next, RNA was extracted using the Cells-to-CT™ lysis kit, according to the manufacturer's guideline (Life Technologies). The cell lysates can be stored at −80° C. or immediately used in the reverse transcription step.
(§3) In preparation of the reverse transcription step, mix A (table 3A) was prepared and 7.57 μL/well was dispensed in a 96-well plate. After addition of 5 μL of the cell lysates, a five minute denaturation step at 75° C. was performed (table 3B). Afterwards, 7.43 μL of mix B was added (table 3C) and the reverse transcription step was initiated (table 3D) to generate cDNA.
(§4) Finally, a RT-qPCR mix was prepared, mix C (table 4A), and 22.02 μL/well was dispensed in 96-well LightCycler qPCR plates to which 3 μL of cDNA was added and the qPCR was performed according to the conditions in table 4B on a LightCycler 480.
(§5) Using the LightCycler software and an in-house LIMS system, dose response curves for each compound were calculated and the half maximal effective concentration (EC50) and the half maximal cytotoxic concentration (CC50) were determined (Tables 5-8).

Vero cells [1] = settings: African green monkey
DENV-2 strain 16681 = assay: Tetravalent RT-qPCR assay, serotype 2; format: cell-based, Dengue virus; settings: for EC50: Dengue virus, DENV2, 72 h, RT-qPCR serotype 2 16681, Vero cells, day 3; for SI: RT-qPCR serotype 2 16681
Description: as §1, §2, §3, §4, §5

DENV-4 strain H241 = assay: Tetravalent RT-qPCR assay, serotype 4; format: cell-based, Dengue virus; settings: for EC50: Dengue virus; for SI: RT-qPCR serotype 4 H241
Description: as §1, §2, §3, §4, §5

DENV-1 strain TC974#666 = assay: Tetravalent RT-qPCR assay, serotype 1; format: cell-based, Dengue virus; settings: for EC50: Dengue virus, DENV1, 72 h, RT-qPCR serotype 1 TC974#666, Vero cells, day 3; for SI: RT-qPCR serotype 1 TC974#666
Description: as §1, §2, §3, §4, §5

DENV-2 16681 strain = assay: DENV-2 antiviral assay (eGFP-labeled virus in Vero cells); format: cell-based, Dengue virus; settings: for EC50: DENV-2 16681 eGFP, Vero cells, MOI 0.5, 3 days; for SI: SI=CC50/EC50, DENV-2 antiviral assay
in vitro [2] = format: cell-based; settings: African green monkey, CC50
Description: as §1, §2, §3, §4, §5

Vero cells [3] = assay: in vitro; format: cell-based; settings: African green monkey, 3 days
Description: as §1, §2, §3, §4, §5

in vitro [4] = settings: African green monkey
[5] = DENV4, 72 h, RT-qPCR serotype 4 H241, Vero cells, day 3, read-out: EC50

| Compound | EC50 (DENV-3 strain H87) | SI (DENV-3 strain H87) | CC50 (Vero cells [1]) | EC50 (DENV-2 strain 16681) | SI (DENV-2 strain 16681) | EC50 (DENV-4 strain H241; [5]) | SI (DENV-4 strain H241) | EC50 (DENV-1 strain TC974#666) | SI (DENV-1 strain TC974#666) | EC50 (DENV-2 16681 strain) | SI (DENV-2 16681 strain) | CC50 at 3 days (in vitro [2]) | CC50 (Vero cells [3]) | EC50 (DENV-4 strain H241; DENV4, Vero, 72 h) | CC50 (in vitro [4]) | melting point |
| --- | --- | --- | --- | --- | --- | --- | --- | --- | --- | --- | --- | --- | --- | --- | --- | --- |
| COc1cc(NC(C(=O)N2CCc3ccc(OC(F)(F)F)cc32)c2ccc(Cl)cc2OCCCC(=O)O)cc(S(C)(=O)=O)c1 (single isomer, unassigned) [Compound 9B] | 1.7 nM | >1840 | 13000 nM | 0.068 nM | >56500 | 7.2 nM | 1390 | 0.1 nM | >45500 | 0.15 nM | 83000 | > 2500 nM | – | – | – | – |
| COc1cc(NC(C(=O)N2CCc3ccc(OC(F)(F)F)cc32)c2ccc(F)cc2OCCO)cc(S(C)(=O)=O)c1 (single isomer, unassigned) [Compound 3B] | 13 nM | >444 | 8700 nM | 0.9 nM | 4760 | 72 nM | >32 | 1.1 nM | >3640 | 0.61 nM | 16300 | > 2500 nM | – | – | – | – |
| COc1cc(NC(C(=O)N2CCc3cc(OC)c(C(F)(F)F)cc32)c2ccc(Cl)cc2OCCO)cc(S(C)(=O)=O)c1 (single isomer, unassigned) [Compound 5B] | 6.7 nM | >752 | 8500 nM | 0.24 nM | >17100 | 26 nM | 86 | 0.94 nM | 8640 | 0.23 nM | >16800 | – | – | – | – | – |
| COc1cc(NC(C(=O)N2CCc3ccc(C(F)(F)F)cc32)c2ccc(Cl)cc2OCCCC(=O)O)cc(S(C)(=O)=O)c1 (single isomer, unassigned) [Compound 7B] | 5.2 nM | >473 | 11000 nM | 0.19 nM | >13500 | 24 nM | >186 | 0.13 nM | >19200 | 0.25 nM | 90600 | > 2500 nM | > 2500 nM | – | – | – |
| COc1cc(NC(C(=O)N2CCc3ccc(C(F)(F)F)cc32)c2ccc(F)cc2OCCO)cc(S(C)(=O)=O)c1 (single isomer, unassigned) [Compound 1B] | 20 nM | >127 | 3400 nM | 1.1 nM | 4670 | – | 23 | 1.5 nM | >2860 | 1.4 nM | >1980 | > 2500 nM | – | 130 nM | – | – |
| COc1cc(NC(C(=O)N2CCc3cc(OC)c(C(F)(F)F)cc32)c2ccc(F)cc2OCCO)cc(S(C)(=O)=O)c1 (single isomer, unassigned) [Compound 2B] | – | – | 18000 nM | – | – | – | – | – | – | 170 nM | 105 | – | – | – | – | – |
| COc1cc(NC(C(=O)N2CCc3ccc(OC(F)(F)F)cc32)c2ccc(Cl)cc2OCCO)cc(S(C)(=O)=O)c1 (single isomer, unassigned) [Compound 6A] | 2.6 nM | >1480 | – | 0.16 nM | >12600 | 26 nM | 119 | 0.16 nM | >41300 | 0.23 nM | >12000 | > 2500 nM | – | – | 7300 nM | – |
| COc1cc(NC(C(=O)N2CCc3ccc(OC(F)(F)F)cc32)c2ccc(Cl)cc2OCCO)cc(S(C)(=O)=O)c1 (single isomer, unassigned) [Compound 6B] | – | – | 10000 nM | – | – | – | – | – | – | 20 nM | 492 | – | – | – | – | – |
| COc1cc(NC(C(=O)N2CCc3ccc(C(F)(F)F)cc32)c2ccc(Cl)cc2OCCO)cc(S(C)(=O)=O)c1 (single isomer, unassigned) [Compound 4A] | 13 nM | >234 | – | 0.45 nM | 11700 | 44 nM | 69 | 0.75 nM | >5470 | 0.41 nM | 15000 | > 2500 nM | – | – | 6000 nM | – |
| COc1cc(NC(C(=O)N2CCc3ccc(OC(F)(F)F)cc32)c2ccc(Cl)cc2OCCCC(=O)O)cc(S(C)(=O)=O)c1 (racemic) (as salt: HCl) (hydrate or solvate) [Compound 9, 4-(5-chloro-2-(1-((3-methoxy-5-(methylsulfonyl)phenyl)amino)-2-oxo-2-(6-(trifluoromethoxy)indolin-1-yl)ethyl)phenoxy)butanoic acid] | – | – | – | – | – | – | – | – | – | – | – | – | – | – | – | 155 °C |
| COc1cc(NC(C(=O)N2CCc3cc(OC)c(C(F)(F)F)cc32)c2ccc(F)cc2OCCO)cc(S(C)(=O)=O)c1 (single isomer, unassigned) [Compound 2A] | 20 nM | >157 | – | 1.3 nM | 4910 | 100 nM | 35 | 4.6 nM | >981 | 0.93 nM | 16400 | – | – | – | 9600 nM | – |
| COc1cc(NC(C(=O)N2CCc3ccc(C(F)(F)F)cc32)c2ccc(F)cc2OCCO)cc(S(C)(=O)=O)c1 (single isomer, unassigned) [Compound 1A] | – | – | 12000 nM | – | – | – | – | – | – | 2400 nM | 4.8 | – | – | – | – | – |
| COc1cc(NC(C(=O)N2CCc3ccc(C(F)(F)F)cc32)c2ccc(Cl)cc2OCCO)cc(S(C)(=O)=O)c1 (single isomer, unassigned) [Compound 4B] | – | – | 11000 nM | – | – | – | – | – | – | 16 nM | 693 | – | – | – | – | – |
| COc1cc(NC(C(=O)N2CCc3cc(OC)c(C(F)(F)F)cc32)c2ccc(Cl)cc2OCCCC(=O)O)cc(S(C)(=O)=O)c1 (single isomer, unassigned) [Compound 8B] | 19 nM | 796 | 14000 nM | 0.3 nM | 54300 | 84 nM | 88 | 1.2 nM | 10500 | 1.2 nM | 6780 | – | – | – | – | – |
